Data set [1] is described as follows: HPLC analysis of disulfide bond cleavage under reducing condition (GSH). As to conditions: PBS buffer (pH 7.4), 37° C., GSH 0.4-1000 equiv, 0-2 hrs. It is filed as physicochemical. The text has this: The glutathione (GSH) level is much higher in the cytoplasm of cancer cells (˜1000 equiv) when compared to blood stream (˜1 equiv). A therapeutic drug with a disulfide bond can be cleaved much more easily in the cytoplasm of cancer cells with high concentration of GSH. A high-performance liquid chromatography (HPLC) analysis for the cleavage of model compound (N-(2-mercaptoethyl)benzamide) with disulfide bond under reducing condition is shown in FIG. 12. The cleavage of model compound is observed in PBS buffer (pH 7.4) at 37° C. with different concentration of glutathione (GSH) (0.4-1000 equiv). […] In the present invention, the recombinant hemoglobin protein or recombinant hemoglobin tetramer or dimer or subunit linked with a therapeutic drug (e.g. chemotherapeutic agent, radiotherapeutic agent, anti-cancer protein drug) by a disulfide bond is prepared for cancer treatment.

The conditions of data set [2]: native human hemoglobin, comparison value; cited from earlier work.
Data set [3] concerns liver cancer cells (HepG2). The data set can be described thus: Live cell time-lapse microscopy, uptake of fluorescent labeled hemoglobin subunits in cancer cells. The class given is cell-based. The settings on record: with heme (+) or without heme (−), 0.1% O2, FIG. 10. From the text: The pharmaceutical composition of the present invention comprises recombinant hemoglobin protein or recombinant hemoglobin tetramer or dimer or subunit-based therapeutic agent capable of both targeting and killing the cancer cells. […] The fluorescent labeled recombinant hemoglobin subunits can also enter into the cancer cells (e.g., liver cancer cells, HepG2) and localize in there, and the result is illustrated in FIG. 10. It is expected that the chemically modified recombinant hemoglobin protein or tetramer or dimer or subunit-based therapeutic agent can also kill the cancer cells and progenitor cells/cancer stem cells effectively.
Cancer cells (HepG2) are cultured in DMEM (Invitrogen) with 10% Fetal bovine serum (FBS), 100 U/mL penicillin and 100 μg/mL streptomycin at 37° C. For normoxic condition, cells are incubated with ambient O2 concentration and 5% CO2; for hypoxic condition, cells are incubated with 0.1-0.5% O2 (Quorum FC-7 automatic CO2/O2/N2 gas mixer) and 5% CO2.
Cancer cells (e.g. HepG2 liver cancer cells) are seeded onto glass bottom microwell dishes (MatTek Corporation). Live cells at defined zooms (63×, 20×) are acquired using Zeiss Observer Z1 widefield microscope, equipped with atmospheric/temperature-controlled chamber and motorized stage for multi-positional acquisition. The incubation is performed in an enclosed live cell imaging system purged with 0.1% O2 and 5% CO2 (premixed). Cells are exposed to the fluorescent labeled recombinant hemoglobin subunits (α, β, γ1, γ2); for 15 min prior to the acquisition of images every 3 min for a period of 2 h. Images are deconvolved and compacted into time-lapse movies using the MetaMorph software (Molecular Device).

As for `O=C(NCCS)c1ccccc1` [model compound, N-(2-mercaptoethyl)benzamide], in data set [1], the “cleavage of disulfide bond at different GSH levels” value is recorded as “better at high concentration of GSH (>50 equiv)”.

As to “native human hemoglobin: native human hemoglobin, comparison for p50”, the “p50 value (oxygen partial pressure necessary to produce 50 percent saturation of hemoglobin)” value in data set [2] is 23-30 mm Hg.

As to “α: recombinant human hemoglobin monomer α (141 amino acids), with or without heme”, the “entry into / uptake by liver cancer cells” value (“entry into / uptake” below) in data set [3] is “can enter into liver cancer cells (HepG2) successfully”.

Take “β: recombinant human hemoglobin monomer β (146 amino acids), with or without heme”: the “entry into / uptake” value in data set [3] is “can enter into liver cancer cells (HepG2) successfully”.

For “γ1: recombinant human hemoglobin monomer γ1 (146 amino acids), with or without heme”, the “entry into / uptake” value in data set [3] is given as “can enter into liver cancer cells (HepG2) successfully”.

Consider “γ2: recombinant human hemoglobin monomer γ2 (146 amino acids), with or without heme”, for which the “entry into / uptake” value in data set [3] is “can enter into liver cancer cells (HepG2) successfully”.

Source of the values: patent US9814759B2, “Pharmaceutical composition comprising recombinant hemoglobin protein or subunit-based therapeutic agent for cancer targeting treatment” (Cheer Global Ltd., priority 2014, dated 2017).
